Assay results reported in the NIST ThermoML archive (doi:10.1021/je300217x).
Numbers after ± are expanded uncertainties.

Conditions: Liquid, Closed cell (Static) method

FC(F)=C(F)F [tetrafluoroethene]
Conditions	vapor or sublimation pressure [kPa]
248.2 K	864 ± 7
248.3 K	866 ± 8
253.34 K	1017 ± 8
263 K	1357 ± 10
263.18 K	1367 ± 9
273.14 K	1804 ± 11
282.9 K	2330 ± 12
283.19 K	2340 ± 12

FC1(F)C(F)(F)C(F)(F)C1(F)F [octafluorocyclobutane]
Conditions	vapor or sublimation pressure [kPa]
247.9 K	39 ± 3
248.25 K	41 ± 3
248.3 K	40 ± 3
253.38 K	51 ± 3
263 K	81 ± 3
265.93 K	92 ± 3
267.92 K	99 ± 3
269.89 K	110 ± 3
272.9 K	122 ± 3
277.87 K	148 ± 3
282.9 K	180 ± 3
287.89 K	216 ± 3
292.89 K	257 ± 4
303.37 K	362 ± 4
313.09 K	486 ± 4
322.53 K	635 ± 5
335.34 K	889 ± 5
342.37 K	1055 ± 6
352.36 K	1329 ± 7
